Results on eleven molecules are retold here after US20240148821A1, “PHARMACEUTICAL USE OF CYCLIC PEPTIDE COMPOUND” (CHUGAI SEIYAKU KABUSHIKI KAISHA, priority 2021, published 2024).

Assay [1] relates to Human pancreatic cancer cell line AsPC-1 (G12D mutation Kras). Nature of the assay: AsPC-1 cell growth inhibition (AsPC-1 CGI). The following applies: read-out: AsPC-1 cell growth inhibition, 50% growth inhibitory concentration (IC50 value); 96 hours, CellTiter-Glo, values classified in ranges. In kind it is cell-based. In general terms: Cellular ATP, detected with luciferase, serves as a proxy for viable cell number.
Method: Test compounds were serially dilated with dimethyl sulfoxide, and 200 nL was then dispensed to a U-bottom 96-well plate using Labcyte Echo. […] The cell suspension was dispensed to a. plate containing a test compound at 100 μL per well and incubated at 37° C. in a 5% carbon dioxide gas incubator. 96 hours later, 80 μL of CellTiter-Glo (Promega) was added to each well and fluorescence was measured.

For assay [2], the target named is protein-protein interaction between Kras and SOS1 (biotin-tagged human Kras loaded with GDP, His-tagged human SOS1) (Homo sapiens (Human), UniProt P01116, G12D). The experiment in a line: Protein-protein interaction inhibition between Kras and SOS1 (KrasG12D-SOS PPI) using AlphaScreen.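 Further: kras produced in E. coli, Ni-coupled donor beads and streptavidin acceptor beads, excitation 680 nm with emission detected at 520–620 nm via singlet oxygen transfer.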 In kind it is biochemical. The following applies: AlphaScreen; biotin-tagged human Kras loaded with GDP, His-tagged human SOS1; read-out: KRAS G12D-SOS PPI IC50. (In general: Alpha assays give light when donor and acceptor beads are brought close together.)

Numbered stars: 1 amine (or outer) side, 2 acyl side, 3 side chain; on linkers, the order of the positions; unused ones are H or OH. Bridge positions count the residues as written; N and C are the ends. Square brackets hold non-standard residues; d marks the D form. Peptide text beside a SMILES is read from it. * marks the point of attachment. hPhe(3,5-F2-4-CF3) = N[C@@H](CCc1cc(F)c(C(F)(F)F)c(F)c1)C(=O)O; hPhe(3-Cl-4-CF3) = N[C@@H](CCc1ccc(C(F)(F)F)c(Cl)c1)C(=O)O; hPhe(3-F,4-CF3) = N[C@@H](CCc1ccc(C(F)(F)F)c(F)c1)C(=O)O; NEtPhe(4-CF3) = CCN[C@@H](Cc1ccc(C(F)(F)F)cc1)C(=O)O; NMePhe(4-CF3) = CN[C@@H](Cc1ccc(C(F)(F)F)cc1)C(=O)O; NMePhe(3,4-F2) = CN[C@@H](Cc1ccc(F)c(F)c1)C(=O)O; NMePhe(4-Me) = CN[C@@H](Cc1ccc(C)cc1)C(=O)O; NMedβ3hAla = C[C@H](CC(=O)[*:2])N(C)[*:1]; NMeGly(cPent) = CN[C@H](C(=O)O)C1CCCC1; NMeGly(cBu) = CN[C@H](C(=O)O)C1CCC1; NMeCha = CN[C@@H](CC1CCCCC1)C(=O)O; NMehLeu = CN[C@@H](CCC(C)C)C(=O)O; Hyp = O=C(O)[C@@H]1C[C@@H](O)CN1; NMeChg = CN[C@H](C(=O)O)C1CCCCC1; NMeF = CN[C@@H](Cc1ccccc1)C(=O)O; NMeI = CC[C@H](C)[C@H](NC)C(=O)O; NMeD = CN[C@@H](CC(=O)O)C(=O)O; NMeL = CN[C@@H](CC(C)C)C(=O)O; NMeV = CN[C@H](C(=O)O)C(C)C; d(β3hA) = C[C@@H](N)CC(=O)O; NMeC = CN[C@@H](CS)C(=O)O; NMeS = CN[C@@H](CO)C(=O)O; Morpholide = C1CN(*)CCO1; NMeA = CN[C@@H](C)C(=O)O; Piperidide = C1CCN(*)CC1; Pyrrolidide = C1CCN(*)C1; Ac5c = NC1(C(=O)O)CCCC1; Aze = O=C(O)[C@@H]1CCN1; Abu = CC[C@H](N)C(=O)O; Cyclobutyl = C1CC(*)C1; Sar = CNCC(=O)O; Propyl = CCC*

In the case of `CC[C@H](C)[C@@H]1NC(=O)[C@H](C)N(C)C(=O)C[C@@H](C)NC(=O)[C@H](CC(C)C)N(C)C(=O)C2(CCCC2)NC(=O)[C@H](CC(C)C)N(C)C(=O)[C@H](CCc2ccc(C(F)(F)F)c(Cl)c2)NC(=O)CN(C)C(=O)[C@H](CC2CCCCC2)N(C)C(=O)CN(C)C(=O)CN(C)C1=O` [Compound 61] (cyclo([Ac5c][NMeL][d(β3hA)][NMeA]I[Sar][Sar][NMeCha][Sar][hPhe(3-Cl-4-CF3)][NMeL])), the IC50 in assay [1] was more than 500 nM; in assay [2], 16 nM.

For the molecule `CC[C@H](C)[C@@H]1NC(=O)[C@H](CC(C)C)N(C)C(=O)C[C@@H](C(=O)N2CCCCC2)N(C)C(=O)[C@H](C2CCCC2)N(C)C(=O)C2(CCCC2)NC(=O)[C@@H]2CCCN2C(=O)[C@H](CCc2ccc(C(F)(F)F)c(Cl)c2)NC(=O)CN(C)C(=O)[C@H](COC2CCC2)N(C)C(=O)[C@@H]2CCN2C(=O)[C@H](C)N(C)C1=O` [Compound 835] ([NMeL]I[NMeA][Aze][NMeS](Cyclobutyl)[Sar][hPhe(3-Cl-4-CF3)]P[Ac5c][NMeGly(cPent)][NMeD]-Piperidide; lactam N-11), the IC50 is not above 20 nM in assay [1] and 0.54 nM in assay [2].

As for `CC[C@H](C)[C@@H]1NC(=O)[C@H](C)N(C)C(=O)C[C@@H](C(=O)N2CCCCC2)N(C)C(=O)[C@H](C(C)C)N(C)C(=O)C2(CCCC2)NC(=O)[C@H](Cc2ccc(F)c(F)c2)N(C)C(=O)[C@H](CCc2ccc(C(F)(F)F)c(Cl)c2)NC(=O)CN(C)C(=O)[C@H](CC2CCCCC2)N(C)C(=O)CN(C)C(=O)CN(C)C1=O` [Compound 171] ([NMeA]I[Sar][Sar][NMeCha][Sar][hPhe(3-Cl-4-CF3)][NMePhe(3,4-F2)][Ac5c][NMeV][NMeD]-Piperidide; lactam N-11), the figures for the IC50 in assay [1] and in assay [2] were more than 500 nM and 14 nM, respectively.

In the case of `CC[C@H](C)[C@@H]1NC(=O)[C@H](CC(C)C)N(C)C(=O)C[C@@H](C(=O)N2CCOCC2)N(C)C(=O)[C@H]([C@@H](C)CC)N(C)C(=O)C2(CCCC2)NC(=O)[C@@H]2CCCN2C(=O)[C@H](CCc2ccc(C(F)(F)F)c(Cl)c2)NC(=O)CN(C)C(=O)[C@H](Cc2ccc(C(F)(F)F)cc2)N(CC)C(=O)[C@@H]2CCN2C(=O)[C@H](C)N(C)C1=O` [Compound 1312] ([NMeL]I[NMeA][Aze][NEtPhe(4-CF3)][Sar][hPhe(3-Cl-4-CF3)]P[Ac5c][NMeI][NMeD]-Morpholide; lactam N-11), the results for the IC50 in assay [1] and in assay [2] were not above 20 nM and 0.74 nM, respectively.

On to `CCO[C@@H]1C[C@H]2C(=O)NC3(CCCC3)C(=O)N(C)[C@@H](C3CCCCC3)C(=O)N(C)[C@H](C(=O)N3CCCC3)CC(=O)N(C)[C@@H](C3CCC3)C(=O)N[C@@H]([C@@H](C)CC)C(=O)N(C)CC(=O)N(C)CC(=O)N(C)[C@@H](CC3CCCCC3)C(=O)N(C)CC(=O)N[C@@H](CCc3ccc(C(F)(F)F)c(Cl)c3)C(=O)N2C1` [Compound 1204] ([NMeGly(cBu)]I[Sar][Sar][NMeCha][Sar][hPhe(3-Cl-4-CF3)][Hyp](Et)[Ac5c][NMeChg][NMeD]-Pyrrolidide; lactam N-11), for which the IC50 is not above 20 nM in assay [1] and 0.44 nM in assay [2].

As for `CCCOC[C@H]1C(=O)N(C)CC(=O)N[C@@H](CCc2ccc(C(F)(F)F)c(F)c2)C(=O)N2CCC[C@H]2C(=O)NC2(CCCC2)C(=O)N(C)[C@@H](C2CCCC2)C(=O)N(C)[C@H](C(=O)N(C)C)CSCC(=O)N(C)[C@@H](CC(C)C)C(=O)N[C@@H]([C@@H](C)CC)C(=O)N(C)[C@@H](C)C(=O)N2CC[C@H]2C(=O)N1C` [Compound 2174, (3S,9S,12S,17S,20S,23S,29R,32S,38S)-20-[(2S)-butan-2-yl]-32-cyclopentyl-3-[2-[3-fluoro-4-(trifluoromethyl)phenyl]ethyl]-N,N,7,10,17,18,24,30,33-nonamethyl-23-(2-methylpropyl)-2,5,8,11,16,19,22,25,31,34,37-undecaoxo-9-(propoxymethyl)spiro[27-thia-1,4,7,10,15,18,21,24,30,33,36-undecazatricyclo[36.3.0.012,15]hentetracontane-35,1′-cyclopentane)-29-carboxamide] ({CH2CO}-[NMeL]I[NMeA][Aze][NMeS](Propyl)[Sar][hPhe(3-F,4-CF3)]P[Ac5c][NMeGly(cPent)][NMeC]-NMe2; thioether N-11), the IC50 in assay [1] is more than 500 nM; in assay [2], 870 nM.

Take `CC[C@H](C)[C@@H]1NC(=O)[C@H](CC(C)C)N(C)C(=O)C[C@@H](C)N(C)C(=O)[C@H](C2CCCC2)N(C)C(=O)C2(CCCC2)NC(=O)[C@@H]2CCCN2C(=O)[C@H](CCc2cc(F)c(C(F)(F)F)c(F)c2)NC(=O)CN(C)C(=O)[C@H](Cc2ccc(C(F)(F)F)cc2)N(C)C(=O)[C@@H]2CCN2C(=O)[C@H](C)N(C)C1=O` [Compound 371] (cyclo([Ac5c][NMeGly(cPent)][NMedβ3hAla][NMeL]I[NMeA][Aze][NMePhe(4-CF3)][Sar][hPhe(3,5-F2-4-CF3)]P)): the IC50 was not above 20 nM in assay [1] and 1.3 nM in assay [2].

For the molecule `CC[C@H](C)[C@@H]1NC(=O)[C@H](CCC(C)C)N(C)C(=O)C[C@@H](C(=O)N(C)C)N(C)C(=O)[C@H]([C@@H](C)CC)N(C)C(=O)C2(CCCC2)NC(=O)[C@@H]2CCCN2C(=O)[C@H](CCc2ccc(C(F)(F)F)c(Cl)c2)NC(=O)CN(C)C(=O)[C@H](Cc2ccc(C)cc2)N(C)C(=O)[C@@H]2CCN2C(=O)[C@H](C)N(C)C1=O` [Compound 1042] ([NMehLeu]I[NMeA][Aze][NMePhe(4-Me)][Sar][hPhe(3-Cl-4-CF3)]P[Ac5c][NMeI][NMeD]-NMe2; lactam N-11), the values for the IC50 in assay [1] and in assay [2] were not above 20 nM and 0.72 nM, respectively.

As to `CC[C@H](C)[C@@H]1NC(=O)[C@H](C)N(C)C(=O)C[C@@H](C)NC(=O)[C@H](C2CCCC2)N(C)C(=O)C2(CCCC2)NC(=O)[C@@H]2CCCN2C(=O)[C@H](CCc2ccc(C(F)(F)F)c(Cl)c2)NC(=O)CN(C)C(=O)[C@H](Cc2ccccc2)N(C)C(=O)[C@@H]2CCCN2C(=O)CN(C)C1=O` [Compound 1004] (cyclo([Ac5c][NMeGly(cPent)][d(β3hA)][NMeA]I[Sar]P[NMeF][Sar][hPhe(3-Cl-4-CF3)]P)), the IC50 is more than 500 nM in assay [1] and 13 nM in assay [2].

For `CC[C@H](C)[C@@H]1NC(=O)[C@H](CC(C)C)N(C)C(=O)C[C@@H](C(=O)N2CCCCC2)N(C)C(=O)[C@H](C(C)C)N(C)C(=O)[C@H](C)NC(=O)[C@@H]2CCCN2C(=O)[C@H](CCc2ccc(C(F)(F)F)c(Cl)c2)NC(=O)CN(C)C(=O)[C@H](CC2CCCCC2)N(C)C(=O)[C@@H]2CCN2C(=O)[C@H](C)N(C)C1=O` [Compound 1211] ([NMeL]I[NMeA][Aze][NMeCha][Sar][hPhe(3-Cl-4-CF3)]PA[NMeV][NMeD]-Piperidide; lactam N-11), the values for the IC50 in assay [1] and in assay [2] were more than 500 nM and 31 nM, respectively.

Consider `CC[C@@H]1NC(=O)[C@H](CC(C)C)N(C)C(=O)C[C@@H](C(=O)N2CCCCC2)N(C)C(=O)[C@H](C(C)C)N(C)C(=O)C2(CCCC2)NC(=O)[C@@H]2CCCN2C(=O)[C@H](CCc2ccc(C(F)(F)F)c(Cl)c2)NC(=O)CN(C)C(=O)[C@H](CC2CCCCC2)N(C)C(=O)[C@@H]2CCN2C(=O)[C@H](C)N(C)C1=O` [Compound 1760] ([NMeL][Abu][NMeA][Aze][NMeCha][Sar][hPhe(3-Cl-4-CF3)]P[Ac5c][NMeV][NMeD]-Piperidide; lactam N-11), for which the IC50 in assay [1] is more than 500 nM; in assay [2], 32 nM.
